Reference: patent USRE47193E1, “Selectively substituted quinoline compounds” (EISAI R&D MANAGEMENT CO., LTD., priority 2013, dated 2019)

Experiments:
[1] = system: Human TLR7/8; assay: Human PBMC cell-based assay, TLR7/8 stimulus (RNA-Ig), cytokine ELISA; conditions: primary human PBMC assay, TLR7/8 potency; ligand not given; read-out: Human PBMCs IC50
Method: Human PBMC Cell-Based Assay. Human peripheral blood mononuclear cells (PBMC) were isolated from freshly-drawn heparinized (10 USP units/ml, Hospira, Lakeforest, Ill.) healthy donor whole blood by density gradient (Histopaque® 1077, Sigma, Inc., St. Louis, Mo.). Briefly, 25 ml blood was diluted with 15 ml PBS (without Ca^2+, Mg^2+) in a 50 ml conical tube, and 12 ml Histopaque was underlaid using a spinal needle. Tubes were centrifuged for 45 minutes at 1200 rpm (350×g), and PBMC were collected from the buffy coat. Cells were then washed twice in PBS, and red blood cells were lysed by suspension in 5 ml ammonium chloride solution (1× Red Blood Cell Lysis Buffer, eBioscience) for 5 minutes at room temperature. After a final wash in PBS, PBMC were resuspended at a final concentration of 2×10^6/ml in RPMI-1640 media with L-glutamine (Invitrogen) and supplemented with 25 mM HEPES (Mediatech, Inc, Manassas Va.), 10% fetal bovine serum (HyClone, Logan, Utah), and Penicillin-Streptomycin-Glutamine (Mediatech) and plated at 100 ul/well (2×10^5 cells/well) in tissue culture treated 96-well plates (Falcon).
Antagonist compounds solubilized and serial diluted in 100% DMSO were added in triplicate to cells to yield a final concentration of 0.1% DMSO (v/v). Hydroxychloroquine (Acros Organics) solubilized and serial diluted in PBS was added in triplicate to cells. PBMC were incubated with antagonist compounds or HCQ for 30 minutes at 37° C., 5% CO2 before adding various TLR agonist reagents in 100 ul complete media per well as follows (final concentrations indicated): R848 (Resiquimod; GLSynthesis, Worcester, Mass.) at 1 uM for TLR7 and TLR8, LPS (Sigma) at 10 ng/ml for TLR4, and CpG-2216 (InvivoGen) at 5 ug/ml for TLR9. To prepare a TLR7/8 agonist that mimics RNA-containing auto-antibody immune complexes in lupus patients, a 26-mer RNA with a sequence derived from human U1 snRNA stem loop IV [(sequence: […]-[…] (SEQ ID NO: 2) with phosphorothioate backbone] was synthesized (Dharmacon, Inc., Lafayette, Colo.), which has been shown previously to be a potent TLR7 and TLR8 agonist. This RNA molecule was diluted to 2.5 μM in serum-free RPMI, and mouse anti-human single stranded DNA monoclonal antibody (MAB3034, Millipore, Inc., Billerica, Mass.), which also cross-reacts with RNA, was added at a 1:25 dilution or at 1 ug/ml. The resulting “RNA-Ig” stimulus was incubated at room temperature for 15-30 minutes before adding to cells. PBMC were incubated with the various TLR agonists for 20 hours at 37° C., 5% CO2. Cell culture supernatants were collected, and levels of various human cytokines were assessed as indicated by standard ELISA procedure according to the manufacturer's recommended protocol (BD Biosciences, Inc., San Diego, Calif.). In a subsequent assay (Table 6) the ability of ER-899742 to block stimulation of normal PBMC by various TLR7/8 ligands, but not DNA-mediated activation of TLR9, was examined. In this assay cells were plated at 1×10^5 cells/well in 100 ul in 96-well plates.

[2] = target: T1, mouse TLR7 (Mus musculus, UniProt P58681); assay: Short-term in vivo (STIV) assay: oral dosing, R848 s.c., plasma IL-6; design: female BALB/c mice (Jackson Labs, Bar Harbor, Me.) were dosed by oral gavage; tissue Jackson Labs; host or cells: living female BALB/c mice; plasma IL-6 after s.c. R848
T1 sequence (P58681 27-1050): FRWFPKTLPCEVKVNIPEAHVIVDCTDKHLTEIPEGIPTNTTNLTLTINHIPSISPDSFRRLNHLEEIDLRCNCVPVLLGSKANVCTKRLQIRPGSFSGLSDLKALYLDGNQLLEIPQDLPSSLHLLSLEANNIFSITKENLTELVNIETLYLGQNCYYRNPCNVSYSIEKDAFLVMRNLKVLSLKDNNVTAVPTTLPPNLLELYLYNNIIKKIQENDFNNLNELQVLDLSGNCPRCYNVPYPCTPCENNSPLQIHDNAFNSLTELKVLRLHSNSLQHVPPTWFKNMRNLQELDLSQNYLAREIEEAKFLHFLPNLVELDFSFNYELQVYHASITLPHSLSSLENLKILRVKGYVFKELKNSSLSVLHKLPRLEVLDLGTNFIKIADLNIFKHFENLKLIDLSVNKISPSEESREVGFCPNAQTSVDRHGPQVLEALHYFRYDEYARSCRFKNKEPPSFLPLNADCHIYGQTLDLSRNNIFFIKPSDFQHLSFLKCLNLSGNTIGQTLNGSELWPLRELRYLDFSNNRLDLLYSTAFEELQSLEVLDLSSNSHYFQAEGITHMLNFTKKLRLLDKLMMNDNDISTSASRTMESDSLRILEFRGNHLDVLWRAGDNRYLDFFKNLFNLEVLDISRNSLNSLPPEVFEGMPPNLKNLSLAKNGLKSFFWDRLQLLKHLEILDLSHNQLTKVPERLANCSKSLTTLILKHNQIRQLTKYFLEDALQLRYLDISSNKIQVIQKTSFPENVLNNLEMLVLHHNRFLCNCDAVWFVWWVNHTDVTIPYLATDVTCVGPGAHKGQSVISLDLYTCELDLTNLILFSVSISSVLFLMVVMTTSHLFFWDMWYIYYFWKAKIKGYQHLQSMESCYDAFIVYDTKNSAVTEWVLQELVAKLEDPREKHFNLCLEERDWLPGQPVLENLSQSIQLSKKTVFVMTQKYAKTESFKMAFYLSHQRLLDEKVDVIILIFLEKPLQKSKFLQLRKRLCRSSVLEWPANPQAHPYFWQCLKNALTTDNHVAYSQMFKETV
Method: Figure Legend: Female BALB/c mice were dosed by oral gavage with Vehicle alone (0.5% aqueous methyl-cellulose) or compound formulated in Vehicle at 33 mg/kg, 100 mg/kg or 300 mg/kg. […] (FIG. 1A).
Short-term in vivo (STIV) assay: To assess compound potency in vivo against mouse TLR7, a short-term in vivo (STIV) assay was utilized. Briefly, mice were orally dosed with compounds and at various time points afterwards were injected subcutaneously with agonist R848 to stimulate TLR7. The plasma IL-6 level following R848 stimulation was then measured by ELISA to assess compound potency and duration-of-action.
Short-term in vivo (STIV) assay. Six to eight week old female BALB/c mice (Jackson Labs, Bar Harbor, Me.) were dosed by oral gavage in 200 ul volume with antagonist compounds formulated in 0.5% aqueous methyl-cellulose (Sigma, St. Louis, Mo.). At various time points afterwards, mice were injected subcutaneously (s.c.) in 100 ul volume with 15 ug R848 (Resiquimod; GLSynthesis, Worcester, Mass.) to stimulate TLR7.

| Compound | IC50 [1] [nM] | also measured |
| --- | --- | --- |
| CC1CCC(NCC2CN(c3ccc(C#N)c4ncccc34)CC(C)O2)CC1 (mixture of isomers) [ER-887442] | 47 | – |
| N#Cc1ccc(N2CCOC(CCl)C2)c2cccnc12 (centres unmarked) [ER-879570] | 113 | – |
| CC(=O)NC[C@H]1CN(c2ccc(C#N)c3ncccc23)C[C@@H](C)O1 [ER-879689] | 1240 | – |
| C[C@@H]1CN(c2ccc(C#N)c3ncccc23)C[C@H](CN)O1 [ER-884884] | 204 | – |
| CCOCC1CN(c2ccc(C#N)c3ncccc23)CC(C)O1 (centres unmarked) [ER-885807] | 331 | – |
| CCC[C@H]1CN(c2ccc(C#N)c3ncccc23)C[C@@H](C)O1 [ER-886131] | 98 | – |
| C[C@H]1CN(c2ccc(C#N)c3ncccc23)C[C@@H](CF)O1 [ER-886133] | 127 | – |
| C[C@H]1CN(c2ccc(C#N)c3ncccc23)C[C@@H](CCl)O1 [ER-886134] | 277 | – |
| CC(C(=O)NC[C@H]1CN(c2ccc(C#N)c3ncccc23)C[C@@H](C)O1)c1ccccc1 (some centres unmarked) [ER-886360] | 486 | – |
| Cc1ccc(OC[C@H]2CN(c3ccc(C#N)c4ncccc34)C[C@@H](C)O2)cc1 [ER-886516] | 56 | – |
| C[C@@H]1CN(c2ccc(C#N)c3ncccc23)C[C@H](COc2ccc(F)c(F)c2)O1 [ER-886605] | 21 | – |
| C[C@@H]1CN(c2ccc(C#N)c3ncccc23)C[C@H](COc2cccc(F)c2)O1 [ER-886606] | 15 | – |
| Cc1nc2cc(NC[C@H]3CN(c4ccc(C#N)c5ncccc45)C[C@@H](C)O3)ccc2n1C [ER-886608] | 1 | – |
| CCn1c(C)nc2cc(NC[C@H]3CN(c4ccc(C#N)c5ncccc45)C[C@@H](C)O3)ccc21 [ER-886609] | 4 | – |
| C[C@@H]1CN(c2ccc(C#N)c3ncccc23)C[C@H](CNC2CCCCC2)O1 [ER-886611] | – | % Suppression vs. Vehicle ([2]; 3 h, 33 mg/kg): 90%; % Suppression vs. Vehicle ([2]; 3 h, 100 mg/kg): 100%; % Suppression vs. Vehicle ([2]; 3 h after oral dose, 11 mg/kg): 53%; % Suppression vs. Vehicle ([2]; 6 h, 11 mg/kg): 0%; % Suppression vs. Vehicle ([2]; 6 h, 33 mg/kg): 90%; % Suppression vs. Vehicle ([2]; 6 h, 100 mg/kg): 100%; % Suppression vs. Vehicle ([2]; 19 h, 11 mg/kg): 19%; % Suppression vs. Vehicle ([2]; 19 h, 33 mg/kg): 0%; % Suppression vs. Vehicle ([2]; 19 h, 100 mg/kg): 100% |
